Where two headings read alike, the source gives them in different places.

The test system of assay [1] is ZIKV replicon. As to the kind of experiment: ZIKV replication inhibition assay (NanoLuc replicon in Vero cells). Particulars: Zika virus, Vero, 72 h, read-out: ZIKA Cell_Nanoluc.
For assay [2], the target named is Japanese encephalitis virus (JEV)-NS2B-NS3 protease (Japanese encephalitis virus, UniProt P32886, DEL1469-1493). As to the kind of experiment: JEV protease inhibition assay. The format is biochemical.
Assay [3] has as its target T1, West Nile Virus (WNV) NS2B-NS3 protease (West Nile virus, UniProt Q9Q6P4).
T1 construct: NS2B1423-1470); purchased R&D 2907-SE-020
The assay is described as follows: WNV protease inhibition assay. The format is biochemical. The settings on record: Table 4; letter codes for IC50. From the text:
WNV protease inhibition assay

[4] abbreviates: read-out: JEV - NS3 protease, 600 nM enzyme, 10 µM Pyr-RTKR-AMC substrate, 25 °C.

On to `CN(C)[C@H]1C[C@H]([n+]2cc([N-]C(=O)Nc3cc(NC(=O)Cc4ccccc4)cc(C(F)(F)F)c3)on2)C1` [Example 55, (3-((1R3R)-3-(Dimethylamino)cyclobutyl)-1,2,3-oxadiazol-3-ium-5-yl)((3-(2-phenyl-acetamido)-5-(trifluoromethyl)phenyl)-carbamoyl)amide], for which the EC50 in assay [1] was 1 to 20 µM. The same molecule returned an IC50 in assay [2] of 1 to 20 µM.

For `O=C([N-]c1c[n+](C[C@H]2CC[C@H](NCC(F)(F)F)CC2)no1)Nc1cc(N2CC[C@H](c3ccccc3)C2=O)cc(C(F)(F)F)c1` [Example 144, ((3-((R)-2-Oxo-3-phenylpyrrolidin-1-yl)-5-(trifluoromethyl)phenyl)carbamoyl)(3-(((1r,4r)-4-((2,2,2-trifluoroethyl)amino)cyclohexyl)-methyl)-1,2,3-oxadiazol-3-ium-5-yl)amide], the EC50 in assay [1] lay within 0.1 to 1 µM. For the same molecule, in assay [2], the IC50 lay in the range of 1 to 20 µM.

As for `CC(=O)NC[C@H]1CC[C@@H]([n+]2cc([N-]C(=O)Nc3cc(NC(=O)Cc4ccccc4)cc(C(F)(F)F)c3)on2)CC1` [Example 62, (3-((1S,4S)-4-(Acetamidomethyl)cyclohexyl)-1,2,3-oxadiazol-3-ium-5-yl)((3-(2-phenylacetamido)-5-(trifluoromethyl)phenyl)carbamoyl)amide], the EC50 in assay [1] is more than 20 µM. In assay [2], the IC50 fell in the range of 1 to 20 µM.

As to `O=C([N-]c1c[n+]([C@H]2CC[C@@H](CNCC(F)(F)F)CC2)no1)Nc1cc(N2CCC(c3ccccc3)C2=O)cc(C(F)(F)F)c1` (stereo partly drawn) [Example 135, ((3-(2-Oxo-3-phenylpyrrolidin-1-yl)-5-(trifluoromethyl)phenyl)carbamoyl)(3-((1S,4S)-4-(((2,2,2-trifluoroethyl)amino)methyl)-cyclohexyl)-1,2,3-oxadiazol-3-ium-5-yl)amide], in assay [1], the EC50 fell in the range of 1 to 20 µM. The molecule further gave an IC50 in assay [2] of more than 20 µM.

Consider `CN(C)[C@H]1CC[C@H]([n+]2cc([N-]C(=O)Nc3cc(NC(=O)Cc4ccccc4)cc(C(F)(F)F)c3)on2)CC1` [Example 96, (3-((1R,4R)-4-(dimethylamino)cyclohexyl)-1,2,3-oxadiazol-3-ium-5-yl)((3-(2-phenylacetamido)-5-(trifluoromethyl)phenyl)-carbamoyl)amide], for which the EC50 in assay [1] was in the range of 1 to 20 µM. For the same molecule, the IC50 in assay [2] was in the range of 1 to 20 µM.

Regarding `CN(C)C[C@H]1CC[C@H]([n+]2cc([N-]C(=O)Nc3cc(NC(=O)Cc4ccccc4)cc(C(F)(F)F)c3)on2)CC1` [Example 147, (3-((1R,4R)-4-((Dimethylamino)methyl)-cyclohexyl)-1,2,3-oxadiazol-3-ium-5-yl)((3-(2-phenylacetamido)-5-(trifluoromethyl)phenyl)-carbamoyl)amide], in assay [1], the EC50 fell in the range of 1 to 20 µM. Moreover, the IC50 in assay [2] (600 nM enzyme, 10 µM Pyr-RTKR-AMC substrate, 25 °C, read-out: JEV - NS3 protease) was 1 to 20 µM; in assay [3] it was less than 0.1 µM.

For the molecule `N[C@H]1CC[C@H](C[n+]2cc([N-]C(=O)Nc3cc(N4CC[C@H](c5ccccc5)C4=O)cc(C(F)(F)F)c3)on2)CC1` [Example 143, (3-(((1R,4R)-4-Aminocyclohexyl)methyl)-1,2,3-oxadiazol-3-ium-5-yl)((3-((R)-2-oxo-3-phenylpyrrolidin-1-yl)-5-(trifluoromethyl)-phenyl)carbamoyl)amide], in assay [1], the EC50 was more than 20 µM. The molecule also came in with an IC50 in assay [2] of 1 to 20 µM.

Regarding `N[C@H]1CC[C@@H]([n+]2cc([N-]C(=O)Nc3cc(NC(=O)Cc4ccccc4)cc(C(F)(F)F)c3)on2)CC1` [Example 91, (3-((1S,4S)-4-Aminocyclohexyl)-1,2,3-oxadiazol-3-ium-5-yl)((3-(2-phenylacetamido)-5-(trifluoromethyl)phenyl)carbamoyl)amide], the EC50 in assay [1] was more than 20 µM. In addition, the IC50 in assay [2] lay within 1 to 20 µM.

As for `CN(C)C[C@H]1CC[C@@H]([n+]2cc([N-]C(=O)Nc3cc(NC(=O)Cc4ccccc4)cc(C(F)(F)F)c3)on2)CC1` [Example 61, (3-((1S,4S)- -4-((Dimethylamino)methyl)cyclohexyl)-1,2,3-oxadiazol-3-ium-5-yl)((3-(2-phenylacetamido)-5-(trifluoromethyl)phenyl)carbamoyl)amide], the EC50 in assay [1] fell in the range of 1 to 20 µM. Also, in assay [2], the IC50 lay within 1 to 20 µM.

Take `N[C@H]1CC[C@H]([n+]2cc([N-]C(=O)Nc3cc(NC(=O)Cc4ccccc4)cc(C(F)(F)F)c3)on2)CC1` [Example 92, (3-((1R,4R)-4-Aminocyclohexyl)-1,2,3-oxadiazol-3-ium-5-yl)((3-(2-phenylacetamido)-5-(trifluoromethyl)phenyl)carbamoyl)amide]: the EC50 in assay [1] is more than 20 µM. Moreover, the IC50 in assay [2] lay within 1 to 20 µM.

For `O=C([N-]c1c[n+](C[C@H]2CC[C@@H](CNCC(F)(F)F)CC2)no1)Nc1cc(N2CCC(c3ccccc3)C2=O)cc(C(F)(F)F)c1` (stereo partly drawn) [Example 139, ((3-(2-Oxo-3-phenylpyrrolidin-1-yl)-5-(trifluoromethyl)phenyl)carbamoyl)(3-(((1s,4s)-4-(((2,2,2-trifluoroethyl)amino)methyl)cyclohexyl)-methyl)-1,2,3-oxadiazol-3-ium-5-yl)amide], the EC50 in assay [1] lay in the range of 1 to 20 µM. In assay [2], the IC50 is more than 20 µM.

As to `CN(C)C[C@H]1CC[C@H]([n+]2cc([N-]C(=O)Nc3cc(NC(=O)Cc4ccccc4)cc(C(F)(F)F)c3)on2)CC1` [Example 94, (3-((1R,4R)-4-((Dimethylamino)methyl)-cyclohexyl)-1,2,3-oxadiazol-3-ium-5-yl)((3-(2-phenylacetamido)-5-(trifluoromethyl)phenyl)-carbamoyl)amide], the IC50 in assay [2] (setting [4]) fell in the range of 1 to 20 µM.

As for `NC[C@H]1CC[C@@H]([n+]2cc([N-]C(=O)Nc3cc(NC(=O)Cc4ccccc4)cc(C(F)(F)F)c3)on2)CC1` [Example 59, (3-((1S,4S)-4-(Aminomethyl)cyclohexyl)-1,2,3-oxadiazol-3-ium-5-yl)((3-(2-phenyl-acetamido)-5-(trifluoromethyl)phenyl)-carbamoyl)amide], the EC50 in assay [1] lay in the range of 1 to 20 µM. The molecule further returned an IC50 in assay [2] of 1 to 20 µM.

As to `NC[C@H]1CC[C@H]([n+]2cc([N-]C(=O)Nc3cc(NC(=O)Cc4ccccc4)cc(C(F)(F)F)c3)on2)CC1` [Example 93, (3-((1R,4R)-4-(Aminomethyl)cyclohexyl)-1,2,3-oxadiazol-3-ium-5-yl)((3-(2-phenyl-acetamido)-5-(trifluoromethyl)phenyl)-carbamoyl)amide], the EC50 in assay [1] lay in the range of 1 to 20 µM. In assay [2], the IC50 is 0.1 to 1 µM.

Turning to `COc1ncc(-c2ccc(C[n+]3cc([N-]C(=O)Nc4cc(NC(=O)Cc5ccc(Cl)cc5)cc(C(F)(F)F)c4)on3)cc2)c(C)n1` [Example 17], the EC50 in assay [1] lay in the range of 1 to 20 µM. Besides, the IC50 in assay [2] (setting [4]) is more than 20 µM.

As for `NC[C@H]1CC[C@@H]([n+]2cc([N-]C(=O)Nc3cc(N4CCC(c5ccccc5)C4=O)cc(C(F)(F)F)c3)on2)CC1` (stereo partly drawn) [Example 119, (3-((1S,4S)-4-(Aminomethyl)cyclohexyl)-1,2,3-oxadiazol-3-ium-5-yl)((3-(2-oxo-3-phenylpyrrolidin-1-yl)-5-(trifluoromethyl)phenyl)-carbamoyl)amide], in assay [1], the EC50 was in the range of 1 to 20 µM. This molecule also had an IC50 in assay [2] of 1 to 20 µM.

In the case of `COc1ncc(-c2ccc(C[n+]3cc([N-]C(=O)Nc4cc(NC(=O)Cc5ccc(CN)cc5)cc(C(F)(F)F)c4)on3)cc2)c(C)n1` [Example 22], in assay [1], the EC50 lay within 1 to 20 µM. For the same molecule, the IC50 in assay [2] (setting [4]) was more than 20 µM.

Turning to `COc1ncc(-c2ccc(C[n+]3cc([N-]C(=O)Nc4cc(NC(=O)Cc5noc6ccccc56)cc(C(F)(F)F)c4)on3)cc2)c(C)n1` [Example 20], the EC50 in assay [1] was more than 20 µM. Also, the IC50 in assay [2] (setting [4]) is more than 20 µM.

Consider `COc1ncc(-c2ccc(C[n+]3cc([N-]C(=O)Nc4cc(NC(=O)c5ccccc5)cc(C(F)(F)F)c4)on3)cc2)c(C)n1` [Example 15], for which, in assay [1], the EC50 is 0.1 to 1 µM. Further, in assay [2] (setting [4]), the IC50 was in the range of 1 to 20 µM.

On to `CN(C)C[C@H]1CC[C@@H]([n+]2cc([N-]C(=O)Nc3cc(N4CCC(c5ccccc5)C4=O)cc(C(F)(F)F)c3)on2)CC1` (stereo partly drawn) [Example 138, (3-((1S,4S)-4-((Dimethylamino)methyl)-cyclohexyl)-1,2,3-oxadiazol-3-ium-5-yl)((3-(2-oxo-3-phenylpyrrolidin-1-yl)-5-(trifluoromethyl)-phenyl)carbamoyl)amide], for which, in assay [1], the EC50 lay within 1 to 20 µM. In assay [2], this molecule yielded an IC50 of 1 to 20 µM.

Turning to `N[C@H]1C[C@H]([n+]2cc([N-]C(=O)Nc3cc(NC(=O)Cc4ccccc4)cc(C(F)(F)F)c3)on2)C1` [Example 26, (3-((1R,3R)-3-Aminocyclobutyl)-1,2,3-oxadiazol-3-ium-5-yl)((3-(2-phenylacetamido)-5-(trifluoromethyl)phenyl)carbamoyl)amide], the EC50 in assay [1] is more than 20 µM. This molecule had an IC50 in assay [2] of 1 to 20 µM.

For `O=C(Cc1ccccc1)Nc1cc(NC(=O)[N-]c2c[n+]([C@H]3CC[C@@H](CN4C(=O)c5ccccc5C4=O)CC3)no2)cc(C(F)(F)F)c1` [Example 60, (3-((1S,4S)-4-((1,3-Dioxoisoindolin-2-yl)methyl)cyclohexyl)-1,2,3-oxadiazol-3-ium-5-yl)((3-(2-phenylacetamido)-5-(trifluoromethyl)-phenyl)carbamoyl)amide], the EC50 in assay [1] lay within 1 to 20 µM. This molecule registered an IC50 in assay [2] of 1 to 20 µM.

As for `Cc1ccccc1CC(=O)Nc1cc(NC(=O)[N-]c2c[n+]([C@H]3CC[C@H](C(C)(C)O)CC3)no2)cc(C(F)(F)F)c1` [Example 206, (3-((1R,4R)-4-(2-Hydroxypropan-2-yl)cyclohexyl)-1,2,3-oxadiazol-3-ium-5-yl)((3-(2-(o-tolyl)acetamido)-5-(trifluoromethyl)phenyl)-carbamoyl)amide], the EC50 in assay [1] fell in the range of 0.1 to 1 µM. The same molecule showed an IC50 in assay [3] of less than 0.1 µM.

Consider `CN(C)[C@H]1CC[C@@H]([n+]2cc([N-]C(=O)Nc3cc(NC(=O)Cc4ccccc4)cc(C(F)(F)F)c3)on2)CC1` [Example 95, (3-((1S,4S)-4-(Dimethylamino)cyclohexyl)-1,2,3-oxadiazol-3-ium-5-yl)((3-(2-phenylacetamido)-5-(trifluoromethyl)phenyl)-carbamoyl)amide], for which, in assay [1], the EC50 fell in the range of 1 to 20 µM. The IC50 in assay [2] was 1 to 20 µM.

For the origin of these results see patent EP4563146A1 (IRBM S.P.A., priority 2023, dated 2025).
